Results published in ChEMBL document CHEMBL3885861, “Open TG-GATES”.

Species: Rattus norvegicus
Test: Open TG-GATES - Regimen: Single
Assay type: toxicity, organism-based, Sprague-Dawley
Parameters: regimen Single, gender Male, age 6 weeks
Settings: in vivo, po, route gavage; for APTT / Bas / Eos / Fbg / Hb / Ht / Lym / MCH / MCHC / MCV / Mono / Neu / PT / Plat / RBC / Ret / WBC: tissue Blood; for KIDNEY_L / KIDNEY_R / KIDNEY_TOTAL: tissue Kidney; for LIVER: tissue Liver
[1] = 100 mg/kg, 3 h, tissue Plasma, dose level Low
[2] = 100 mg/kg, 6 h, tissue Plasma, dose level Low
[3] = 100 mg/kg, 9 h, tissue Plasma, dose level Low
[4] = 100 mg/kg, 24 h, dose level Low
[5] = 100 mg/kg, 24 h, tissue Plasma, dose level Low

C[C@H](CS)C(=O)N1CCC[C@H]1C(=O)O [CAPTOPRIL]
gamma-GTP (0 mg/kg, 24 h, tissue Plasma, dose level Control): 1 IU/L | TERMINAL_BW (100 mg/kg, 3 h, dose level Low): 224.3 g | APTT (100 mg/kg, 3 h, dose level Low): 16.3 s | Bas (100 mg/kg, 3 h, dose level Low): 0% | Eos (100 mg/kg, 3 h, dose level Low): 1% | Fbg (100 mg/kg, 3 h, dose level Low): 207 mg/dL | Hb (100 mg/kg, 3 h, dose level Low): 13.1 g/dL | Ht (100 mg/kg, 3 h, dose level Low): 40.2% | Lym (100 mg/kg, 3 h, dose level Low): 82.2% | MCH (100 mg/kg, 3 h, dose level Low): 21.1 pg | MCHC (100 mg/kg, 3 h, dose level Low): 32.7% | MCV (100 mg/kg, 3 h, dose level Low): 64.4 fL | Mono (100 mg/kg, 3 h, dose level Low): 4.8% | Neu (100 mg/kg, 3 h, dose level Low): 12.2% | PT (100 mg/kg, 3 h, dose level Low): 11.9 s | Plat (100 mg/kg, 3 h, dose level Low): 123.2 x10_4/uL | RBC (100 mg/kg, 3 h, dose level Low): 624.2 x10_4/ul | Ret (100 mg/kg, 3 h, dose level Low): 7.4% | KIDNEY_L (100 mg/kg, 3 h, dose level Low): 1 g | KIDNEY_R (100 mg/kg, 3 h, dose level Low): 1 g | KIDNEY_TOTAL (100 mg/kg, 3 h, dose level Low): 2.1 g | ALP [1]: 996 IU/L | ALT [1]: 35.6 IU/L | AST [1]: 67 IU/L | BUN [1]: 13.8 mg/dL | CRE [1]: 0.5 mg/dL | DBIL [1]: 0.008 mg/dL | GLC [1]: 205.2 mg/dL | IP [1]: 9.7 mg/dL | K [1]: 4.9 meq/L | LDH [1]: 113.6 IU/L | Na [1]: 137.8 meq/L | PL [1]: 131.8 mg/dL | RALB [1]: 3.6 g/dL | TBIL [1]: 0.4 mg/dL | TC [1]: 70.4 mg/dL | TG [1]: 68 mg/dL | TP [1]: 5.5 g/dL | gamma-GTP [1]: 2 IU/L | TERMINAL_BW (100 mg/kg, 6 h, dose level Low): 225.5 g | APTT (100 mg/kg, 6 h, dose level Low): 16.3 s | Bas (100 mg/kg, 6 h, dose level Low): 0% | Eos (100 mg/kg, 6 h, dose level Low): 1% | Hb (100 mg/kg, 6 h, dose level Low): 12.9 g/dL | Ht (100 mg/kg, 6 h, dose level Low): 39.5% | Lym (100 mg/kg, 6 h, dose level Low): 76.4% | MCH (100 mg/kg, 6 h, dose level Low): 21.8 pg | MCHC (100 mg/kg, 6 h, dose level Low): 32.8% | MCV (100 mg/kg, 6 h, dose level Low): 66.5 fL | Mono (100 mg/kg, 6 h, dose level Low): 5.8% | Neu (100 mg/kg, 6 h, dose level Low): 17% | PT (100 mg/kg, 6 h, dose level Low): 12.2 s | Plat (100 mg/kg, 6 h, dose level Low): 113.6 x10_4/uL | RBC (100 mg/kg, 6 h, dose level Low): 595.2 x10_4/ul | Ret (100 mg/kg, 6 h, dose level Low): 7.9% | WBC (100 mg/kg, 6 h, dose level Low): 126.2 x10_2/uL | KIDNEY_L (100 mg/kg, 6 h, dose level Low): 1.1 g | KIDNEY_R (100 mg/kg, 6 h, dose level Low): 1.1 g | KIDNEY_TOTAL (100 mg/kg, 6 h, dose level Low): 2.2 g | ALP [2]: 794.8 IU/L | ALT [2]: 30.8 IU/L | AST [2]: 55.6 IU/L | BUN [2]: 17.4 mg/dL | CRE [2]: 0.6 mg/dL | DBIL [2]: 0.028 mg/dL | GLC [2]: 192.4 mg/dL | IP [2]: 9.6 mg/dL | K [2]: 4.9 meq/L | LDH [2]: 73.8 IU/L | Na [2]: 138.6 meq/L | PL [2]: 130.6 mg/dL | RALB [2]: 3.7 g/dL | TBIL [2]: 0.4 mg/dL | TC [2]: 69.8 mg/dL | TG [2]: 62.6 mg/dL | TP [2]: 5.3 g/dL | gamma-GTP [2]: 1.6 IU/L | TERMINAL_BW (100 mg/kg, 9 h, dose level Low): 220.6 g | APTT (100 mg/kg, 9 h, dose level Low): 16.3 s | Bas (100 mg/kg, 9 h, dose level Low): 0% | Eos (100 mg/kg, 9 h, dose level Low): 1% | Fbg (100 mg/kg, 9 h, dose level Low): 205.8 mg/dL | Hb (100 mg/kg, 9 h, dose level Low): 12.8 g/dL | Ht (100 mg/kg, 9 h, dose level Low): 38.8% | Lym (100 mg/kg, 9 h, dose level Low): 74% | MCH (100 mg/kg, 9 h, dose level Low): 21.6 pg | MCHC (100 mg/kg, 9 h, dose level Low): 33% | MCV (100 mg/kg, 9 h, dose level Low): 65.6 fL | Mono (100 mg/kg, 9 h, dose level Low): 5.4% | Neu (100 mg/kg, 9 h, dose level Low): 19.2% | PT (100 mg/kg, 9 h, dose level Low): 12.1 s | Plat (100 mg/kg, 9 h, dose level Low): 119.2 x10_4/uL | RBC (100 mg/kg, 9 h, dose level Low): 591.8 x10_4/ul | Ret (100 mg/kg, 9 h, dose level Low): 8.2% | KIDNEY_L (100 mg/kg, 9 h, dose level Low): 1 g | KIDNEY_R (100 mg/kg, 9 h, dose level Low): 1 g | KIDNEY_TOTAL (100 mg/kg, 9 h, dose level Low): 2 g | LIVER (100 mg/kg, 9 h, dose level Low): 9 g | ALP [3]: 891.4 IU/L | ALT [3]: 30.6 IU/L | AST [3]: 59.2 IU/L | BUN [3]: 13.4 mg/dL | CRE [3]: 0.4 mg/dL | DBIL [3]: 0.084 mg/dL | GLC [3]: 202.4 mg/dL | K [3]: 4.7 meq/L | LDH [3]: 71 IU/L | Na [3]: 138.6 meq/L | PL [3]: 122.4 mg/dL | RALB [3]: 3.6 g/dL | TBIL [3]: 0.3 mg/dL | TC [3]: 65.2 mg/dL | TG [3]: 55.8 mg/dL | TP [3]: 5.2 g/dL | gamma-GTP [3]: 1.8 IU/L | TERMINAL_BW [4]: 234.4 g | APTT [4]: 17.2 s | Bas [4]: 0% | Eos [4]: 1.4% | Hb [4]: 12.8 g/dL | Ht [4]: 38.4% | Lym [4]: 71.8% | MCH [4]: 21.1 pg | MCHC [4]: 33.2% | MCV [4]: 63.6 fL | Mono [4]: 6.4% | Neu [4]: 20% | PT [4]: 11.6 s | Plat [4]: 114.1 x10_4/uL | RBC [4]: 604.4 x10_4/ul | Ret [4]: 8.7% | WBC [4]: 82.6 x10_2/uL | KIDNEY_L [4]: 1.1 g | KIDNEY_R [4]: 1.1 g | KIDNEY_TOTAL [4]: 2.3 g | LIVER [4]: 11.3 g | ALT [5]: 40.8 IU/L | AST [5]: 68.8 IU/L | BUN [5]: 15.8 mg/dL | CRE [5]: 0.6 mg/dL | Ca [5]: 11.1 mg/dL | DBIL [5]: 0.058 mg/dL | GLC [5]: 189.4 mg/dL | IP [5]: 8.5 mg/dL | K [5]: 4.6 meq/L | LDH [5]: 113 IU/L | Na [5]: 139 meq/L | PL [5]: 147.6 mg/dL | RALB [5]: 4 g/dL | TBIL [5]: 0.3 mg/dL | TC [5]: 78.8 mg/dL | TG [5]: 92.8 mg/dL | TP [5]: 5.8 g/dL
